The text below walks through data of ChEMBL document CHEMBL5608217, “New potent EV-A71 antivirals targeting capsid” (Eur J Med Chem, 2024).

Data set [1] relates to Enterovirus A71. Description: Antiviral activity against Enterovirus A71 infected in human MRC5 cells assessed as reduction in viral replication incubated for 72 hrs by RT-qPCR analysis. In kind it is functional, organism-based. To be noted: Enterovirus A, MRC5, 72 h.
A short description of data set [2]: Cytotoxicity against human MRC5 cells. The format is toxicity, cell-based.
Data set [3] is described as follows: Cytotoxicity against human RD cells. In kind it is toxicity, cell-based.
For data set [4], the system named is Enterovirus A71. Description: Antiviral activity against Enterovirus A71 infected in human RD cells assessed as reduction in viral replication incubated for 72 hrs by RT-qPCR analysis. The format is functional, organism-based. The conditions noted are these: Enterovirus A.
Data set [5] can be described thus: Selectivity index, ratio of CC50 for cytotoxicity against human MRC5 cells to EC50 for antiviral activity against Enterovirus A71 infected in human MRC5 cells. In kind it is toxicity, cell-based. The conditions noted are these: read-out: Ratio CC50/EC50.
The nature of data set [6]: Selectivity index, ratio of CC50 for cytotoxicity against human RD cells to EC50 for antiviral activity against Enterovirus A71 infected in human RD cells. In kind it is toxicity, cell-based. The conditions noted are these: read-out: Ratio CC50/EC50.
The subject of data set [7] is Enterovirus A71. In words: Antiviral activity against Enterovirus A71 infected in human RD cells assessed as inhibition of viral replication at 0.31 to 40 uM incubated for 72 hrs by RT-qPCR analysis relative to control. In kind it is functional. The conditions noted are these: dose 0.31-40 µM. In general terms: Quantitative PCR measures a nucleic acid by following its amplification.

Data set [8] in a line: Genotoxicity in Chinese hamster CHO-K1 cells assessed as increase in micronucleated cell rate at […] incubated for 3 hrs in presence of Sprague-Dawley rat liver S9 fraction by Giemsa staining based micronucleus assay. In kind it is toxicity, subcellular, Cricetulus griseus. To be noted: s9, 3 h, dose lower 1 g/L.
Data set [9] is described as follows: Cytotoxicity against Chinese hamster CHO-K1 cells incubated for 24 hrs by neutral red dye uptake assay. In kind it is toxicity, cell-based, Cricetulus griseus.
Data set [10] can be described thus: Genotoxicity in Chinese hamster CHO-K1 cells assessed as increase in micronucleated cell rate at […] incubated for 3 hrs in absence of Sprague-Dawley rat liver S9 fraction by Giemsa staining based micronucleus assay. In kind it is toxicity, Cricetulus griseus. To be noted: cho-k1, 3 h, dose lower 1 g/L.
Data set [11] has as its system Enterovirus A71. Description: Antiviral activity against Enterovirus A71 infected in human MRC5 cells assessed as inhibition of viral replication at 0.31 to 40 uM incubated for 72 hrs by RT-qPCR analysis relative to control. In kind it is functional. The conditions noted are these: dose 0.31-40 µM.
Another data set relates to rhinovirus B14. Description: Antiviral activity against Human rhinovirus B14 infected in human HeLa-RH cells assessed as inhibition of virus induced cytopathic effect incubated for 3 days by MTS assay. In kind it is functional, organism-based. The conditions noted are these: Rhinovirus B, 72 h.

Calls of active or inactive are those of the source. No cut-off for these calls is given here. A value given as a limit tells only on which side of the number the result lay.

As usually defined, the EC50 is the concentration that produces a half-maximal response. As for `CCOc1ccc(-c2ccc(CSc3ccc(-c4ccc(CO)cc4)cn3)cc2)cc1`, the EC50 in the data set on Enterovirus A71 [1] was over 20 µM.
In the case of `Clc1ccc2oc(SCc3ccc(-n4cncn4)cc3)nc2c1`, the EC50 in the data set with Enterovirus A71 [1] was over 20 µM.
With `c1ncn(-c2ccc(CSc3ccc(-c4ccc(N5CCOCC5)cc4)cc3)cc2)n1`, in the data set on Enterovirus A71 [1], the EC50 is over 20 µM.
Take `CCOc1ccc(-c2ccc(CSc3ccc(-c4ccc(CO)cc4)cc3)cc2)cc1`: the EC50 in the data set with Enterovirus A71 [1] is over 20 µM.
As to `OCc1ccc(-c2ccc(SCc3ccc(-n4cncn4)cc3)cc2)cc1`, the EC50 in the data set with Enterovirus A71 [1] is over 20 µM.
As for `c1ccc2sc(SCc3ccc(-n4cncn4)cc3)nc2c1`, in the data set with Enterovirus A71 [1], the EC50 is over 20 µM.
The CC50 is the concentration that lowers cell viability or growth by half. As for `CCOc1noc2cc(OCCC3CCN(c4ccc(C)nn4)CC3)ccc12` [VAPENDAVIR], the CC50 in data set [2] was over 20 µM; in data set [3], over 63 µM.
`OCc1ccc(-c2ccc(SCc3ccc(-n4cncn4)cc3)nc2)cc1`: the EC50 in the data set on Enterovirus A71 [4] stood at 1.66 µM; in the data set with Enterovirus A71 [1] it was 0.29 µM. The selectivity ratio was over 68 in [5] and over 24 in data set [6]. Also, the inhibition result in the data set on Enterovirus A71 [7] and with Enterovirus A71 [11] was “Active” throughout. In addition, the Activity entry in data set [8] and in data set [10] was “Non-Toxic” each time. In addition, the CC50 in data set [2] was over 20 µM; in [3], over 40 µM. The compound further displayed a CC50 at 24 h in data set [9] of 41.3 µM.
Take `CN(C)c1ccc(-c2ccc(SCc3ccc(-n4cncn4)cc3)cc2)cc1`: in the data set with Enterovirus A71 [1], the EC50 was over 20 µM.
Consider `Cn1nccc1-c1ccc(SCc2ccc(-n3cncn3)cc2)cc1`, for which the EC50 turned out to be 4.38 µM with Enterovirus A71 [4] and 0.57 µM in the data set with Enterovirus A71 [1]. For the same compound, the selectivity ratio in data set [5] is over 35; in data set [6], over 9. The “inhibition (INH)” value with Enterovirus A71 [7] and in the data set with Enterovirus A71 [11] was 100% each time. The Activity result in [8] and in [10] was “Non-Toxic” throughout. Besides, the figures for the cytotoxic concentration (CC50) in data set [2] and in [3] were over 20 µM and over 40 µM, respectively. Besides, half-maximal cytotoxicity in data set [9] (CC50 at 24 h) was put at 44.8 µM.
For `COc1ccc2oc(SCc3ccc(-c4ccc(N(C)C)cc4)cc3)nc2c1`, the EC50 in the data set on Enterovirus A71 [1] was over 20 µM.
The same measure, in the same setting: next, `O=Cc1ccc(-c2ccc(SCc3ccc(-n4cncn4)cc3)nc2)cc1`: over 20 µM.
For the compound `OCc1ccc(-c2ccc(SCc3ccc(-c4ccc(N5CCOCC5)cc4)cc3)nc2)cc1`, the EC50 in the data set on Enterovirus A71 [4] worked out at 19.7 µM; in the data set with Enterovirus A71 [1], 6.38 µM. In addition, the figures for the selectivity ratio in data set [5] and in data set [6] were over 3.1 and over 2, respectively. Also, the Activity result in [8] and in data set [10] was “Non-Toxic” each time. Besides, the CC50 was over 20 µM in data set [2] and over 40 µM in data set [3]. Further, it took 45.8 µM to reach half-maximal cytotoxicity in data set [9] (CC50 at 24 h).
With `CCOc1ccc(-c2ccc(SCc3ccc(-n4cncn4)cc3)cc2)cc1`, the EC50 in the data set on Enterovirus A71 [1] is over 20 µM.
Regarding `c1ccc2oc(SCc3ccc(-n4cncn4)cc3)nc2c1`, the EC50 in the data set on Enterovirus A71 [1] was over 20 µM.
On to `Cc1ccc2oc(SCc3ccc(-n4cncn4)cc3)nc2c1`, for which the EC50 with Enterovirus A71 [1] was over 20 µM.
Consider `Fc1ccc(-c2ccc(SCc3ccc(-n4cncn4)cc3)cc2)cc1C(F)(F)F`, for which, in the data set with Enterovirus A71 [1], the EC50 was over 20 µM.
Take `FC(F)(F)c1ccc2c(SCc3ccc(-n4cncn4)cc3)ccnc2c1`: the EC50 is 12.7 µM in the data set with Enterovirus A71 [4] and 28 µM in the data set on Enterovirus A71 [1]. In addition, the CC50 in [2] is over 40 µM; in [3], 20.8 µM.
Turning to `CCOc1ccc(-c2ccc(CSc3nc4cc(OC)ccc4o3)cc2)cc1`, in the data set on Enterovirus A71 [1], the EC50 is over 20 µM.
For the compound `OCc1ccc(-c2ccc(SCc3ccc(-c4ccc(O)cc4)cc3)nc2)cc1`, the EC50 in the data set with Enterovirus A71 [1] was over 20 µM.
Regarding `Cn1nccc1-c1ccc(SCc2ccc(-n3cncn3)cc2)nc1`, in the data set on Enterovirus A71 [1], the EC50 was over 20 µM.
`c1ccc2nc(SCc3ccc(-n4cncn4)cc3)ccc2c1`: the results for the EC50 with Enterovirus A71 [4] and with Enterovirus A71 [1] were over 40 µM and 39.7 µM, respectively. Also, the CC50 in [2] and in data set [3] was over 40 µM in each case.
Consider `c1ccc2nc(SCc3ccc(-n4cncn4)cc3)cnc2c1`, for which the EC50 is 6.8 µM with Enterovirus A71 [4] and 38.1 µM in the data set on Enterovirus A71 [1]. Also, the CC50 in data set [2] and in [3] was over 40 µM each time.
`Cc1cccc2c1[nH]c1nc(SCc3ccc(-n4cncn4)cc3)nnc12`: the results for the EC50 in the data set with Enterovirus A71 [4] and in the data set with Enterovirus A71 [1] were 4.65 µM and 26.5 µM, respectively. Also, the CC50 in [2] was 15.6 µM; in data set [3], 8.89 µM.
Regarding `c1ccc2[nH]c(SCc3ccc(-n4cncn4)cc3)nc2c1`, the EC50 in the data set with Enterovirus A71 [1] is over 20 µM.
On the same count and under the same terms, next, `FC(F)(F)c1ccc(-c2ccc(SCc3ccc(-n4cncn4)cc3)cc2)cc1`: over 20 µM; `Cc1ccc(-c2ccc(SCc3ccc(-n4cncn4)cc3)cc2)cc1`: over 20 µM.
`COc1ccc2oc(SCc3ccc(-n4cncn4)cc3)nc2c1`: the results for the EC50 with Enterovirus A71 [4] and in the data set on Enterovirus A71 [1] were 28.5 µM and 1.67 µM, respectively. Further, in data set [5], the selectivity ratio was under 1. Besides, the Activity result in [8] and in data set [10] was “Non-Toxic” in each case. In addition, the results for the CC50 in data set [2] and in data set [3] were over 20 µM and 22.1 µM, respectively. Besides, the CC50 at 24 h in data set [9] worked out at 32.1 µM.
Turning to `CN1CCC(c2ccc(-c3ccc(CSc4ccc(-c5ccc(CO)cc5)cn4)cc3)cc2)CC1`, the EC50 with Enterovirus A71 [1] was over 20 µM.
For `COc1ccc2[nH]c(SCc3ccc(-n4cncn4)cc3)nc2c1`, the EC50 in the data set on Enterovirus A71 [4] and in the data set on Enterovirus A71 [1] was over 40 µM each time. For the same compound, the CC50 in [2] and in data set [3] was over 40 µM throughout.
Consider `CCOc1ccc(-c2ccc(SCc3ccc(-n4cncn4)cc3)nc2)cc1`, for which the EC50 in the data set on Enterovirus A71 [1] is over 20 µM.
With `COc1cc(C[C@H](O)c2ccc(C#N)cc2)c([N+](=O)[O-])cc1OC`, the EC50 in the data set with rhinovirus B14 stood at 2 µM.
`OCc1ccc(-c2ccc(SCc3ccc(-c4ccc(C(F)(F)F)cc4)cc3)nc2)cc1`: the EC50 in the data set on Enterovirus A71 [1] is over 20 µM.
With `CN(C)c1ccc(-c2ccc(CSc3ccc(-c4ccc(CO)cc4)cn3)cc2)cc1`, the EC50 in the data set with Enterovirus A71 [1] is over 20 µM.
